Laboratory results: article PMC11940194, “Synthesis, Antiproliferative Activity, and ADME Profiling of Novel Racemic and Optically Pure Aryl-Substituted Purines and Purine Bioisosteres” (Biomolecules, 2025)

Tests used:
[1] = test system: P-glycoprotein (human MDR1); test: MDCKII-MDR1 permeability assay; type: in vitro ADME, canine cells with over-expressed human MDR1 gene; details: dog, MDCK-MDR1; for Papp A→B at 60 min, 10 µM / Papp B→A at 60 min, 10 µM: 37 °C; for efflux ratio at 60 min, 10 µM: <2 no efflux, >2 active efflux; for Papp at 60 min, 10 µM: permeability class
Description: (§1) MDCKII-hMDR1 cells were obtained from Solvo Biotechnology, Hungary. DMEM, fetal bovine serum, Glutamax-100, Antibiotic/Antimycotic, DMSO, Dulbecco’s phosphate-buffered saline, and MEM Non-essential amino acids were purchased from Sigma (St. Louis, MO, USA). Bi-directional permeability and P-glycoprotein substrate assessments were carried out in Madin-Darby canine epithelial cells with the over-expressed human MDR1 gene (MDCKII-MDR1), coding for P-glycoprotein. Experimental procedures, as well as cell culture conditions, were the same as previously described. Briefly, compounds (10 µM, 1% DMSO v/v) in duplicate were incubated at 37 °C for 60 min with cell monolayer on 24-well Millicell inserts (Millipore, Burlington, MA, USA) with and without the P-glycoprotein inhibitor Elacridar (2 µM, International Laboratory, San Francisco, CA, USA). The inhibition of P-glycoprotein was verified by amprenavir (Moravek Biochemicals Inc, Brea, CA, USA) and monolayer integrity using Lucifer yellow (Sigma, St. Louis, MO, USA). LC-MS/MS measured compound concentrations and Lucifer yellow was measured on an Infinite F500 (Tecan, Männedorf, CH, Switzerland) using excitation of 485 nm and emission of 530 nm.
(§2) All samples were quantified using tandem mass spectrometry coupled to liquid chromatography. Samples were analyzed on a Sciex API4000 Triple Quadrupole Mass Spectrometer (Sciex, Division of MDS Inc., Toronto, Canada) coupled to a Shimadzu Nexera X2 UHPLC frontend (Kyoto, Japan). Samples were injected onto a UHPLC column (HALO2 C18, 2.1 × 20 mm, 2 µm or Luna Omega 1.6 µm Polar C18 100A, 30 × 2.1 mm) and eluted with a gradient at 50 °C. The mobile phase was composed of acetonitrile/water mixture (9/1, with 0.1% formic acid) and 0.1% formic acid in deionized water. The flow rate was 0.7 mL/min under gradient conditions, leading to a total run time of 1.5–2 min. A positive ion mode with turbo spray, an ion source temperature of 550 °C, and a dwell time of 150 ms were utilized for mass spectrometric detection. Quantitation was performed using multiple reaction monitoring (MRM) at the specific transitions for each compound.

[2] = test system: MDCKII-MDR1 cells (P-glycoprotein); test: MDCKII-MDR1 permeability assay; type: in vitro ADME, canine cells with over-expressed human MDR1 gene; details: for Permeability: permeability class
Description: as §1, §2

[3] = test system: hepatocellular carcinoma (HepG2) cells; test: Antiproliferative MTT assay, HepG2; type: cell-based, human; details: for IC50: Homo sapiens, HepG2, 72 h, 72 h incubation, MTT, mean ± SD; for SI (HepG2): SI = [IC50 HFF]/[IC50 HepG2]
In short: (§3)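 Growth inhibition is measured by MTT after cells are exposed for 72 h to compounds spanning 0.01 to 100 µM. IC50 is derived from dose–response curves by linear regression, with quadruplicate wells in two independent runs.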

[4] = test system: pancreatic ductal adenocarcinoma (CFPAC-1) cells; test: Antiproliferative MTT assay, CFPAC-1; type: cell-based, human; details: for IC50: Homo sapiens, CFPAC-1, 72 h, 72 h incubation, MTT, mean ± SD; for SI (CFPAC-1): SI = [IC50 HFF]/[IC50 CFPAC-1]
In short: as §3

[5] = test system: breast adenocarcinoma (MCF7) cells; test: Antiproliferative MTT assay, MCF-7; type: cell-based, human; details: for IC50: Homo sapiens, MCF7, 72 h incubation, MTT, mean ± SD; for SI (MCF-7): SI = [IC50 HFF]/[IC50 MCF-7]
In short: as §3

[6] = test system: colorectal carcinoma (HT-29) cells; test: Antiproliferative MTT assay, HT-29; type: cell-based, human; details: for IC50: Homo sapiens, HT-29, 72 h, 72 h incubation, MTT, mean ± SD; for SI (HT-29): SI = [IC50 HFF]/[IC50 HT-29]
In short: as §3

[7] = test system: normal skin fibroblasts (HFF-1); test: Cytotoxicity MTT assay, normal skin fibroblasts; type: cell-based, human; details: Homo sapiens, HFF-1, 72 h, 72 h incubation, mean ± SD
In short: as §3

[8] = Metabolic stability in mouse liver microsomes; type: in vitro ADME; details: for Clearance Class.: mouse liver microsomes; for Clearance Values (CL): predicted in vivo hepatic clearance from mouse liver microsome t1/2, 1 µM compound
Text: Mouse liver microsomes were obtained from Corning Life Sciences (Corning, NY, USA). DMSO, nicotinamide adenine dinucleotide phosphate (NADP), glucose-6-phosphate, glucose-6-phosphate dehydrogenase, magnesium chloride, propranolol, caffeine, diclofenac, and phosphate-buffered saline (PBS) were purchased from Sigma (St. Louis, MO, USA). Acetonitrile (ACN) and methanol (MeOH) were obtained from Merck (Darmstadt, Germany). Testosterone was purchased from Steraloids (Newport, RI, USA). Metabolic stability was assessed in mouse liver microsomes. Compounds (final concentration of 1 µM, 0.03% DMSO v/v) were incubated in duplicate in phosphate buffer (50 mM, pH 7.4) at 37 °C together with mouse liver microsomes in the absence and presence of the NADPH cofactor (0.5 mM nicotinamide adenine dinucleotide phosphate, 5 mM glucose-6-phosphate, 1.5 U/mL glucose-6-phosphate dehydrogenase, and 0.5 mM magnesium chloride). Incubation and sampling were performed on a Freedom EVO 200 (Tecan, Männedorf, CH, Switzerland) at […], 10, 20, 30, 45, and 60 min. The reaction was quenched using 3 volumes of a mixture of ACN/MeOH (2:1) containing internal standard (diclofenac), centrifuged, and the supernatants were analyzed using LC-MS/MS. The metabolic activity of the microsomes was verified via simultaneous analysis of several controls including testosterone, propranolol, and caffeine. The in vitro half-life (t1/2) was calculated using GraphPad Prism (v9.0 software) non-linear regression of % of parent compound remaining versus time. In vitro clearance, expressed as µL/min/mg, was estimated from the in vitro half-life (t1/2) and normalized for the protein amount in the incubation mixture, assuming 52.5 mg of protein per gram of liver and using constant values for mouse liver weight/body weight [87.5 g/kg] and mouse liver blood flow (LBF) [131 mL/min/kg].
as §2

SMILES	Papp A→B at 60 min, 10 µM [1]	Papp B→A at 60 min, 10 µM [1]	efflux ratio at 60 min, 10 µM [1]	Permeability [2]	IC50 [3]	IC50 [4]	SI (CFPAC-1) [4]	IC50 [5]	IC50 [6]	IC50 [7]	Clearance Class. [8]	Clearance Values (CL) [8]	Papp at 60 min, 10 µM [1]	SI (HepG2) [3]	SI (HT-29) [6]	Efflux Ratio ([2]; <2 no efflux, >2 active efflux)	SI (MCF-7) [5]
OCC(c1ccc(Br)cc1)n1cc(Cn2ccc3ccccc32)nn1 (stereo not drawn) [Compound 29a, 1-((1-(2-Hydroxy-1-(4-bromophenyl)ethyl)-1H-1,2,3-triazol-4-yl)methyl)-1H-indole]	10 ×10⁻⁶ cm/s	25.5 ×10⁻⁶ cm/s	2.6	HIGH	29 ± 0.8 µM	39 ± 2.8 µM	>2.6	24 ± 1 µM	34 ± 0.3 µM	> 100 µM	MODERATE (30–70% moderate)	43%					
OC(Cn1cc(Cn2ccc3ccccc32)nn1)c1ccc(Br)cc1 (stereo not drawn) [Compound 29b, 1-((1-(2-Hydroxy-2-(4-bromophenyl)ethyl)-1H-1,2,3-triazol-4-yl)methyl)-1H-indol]	18.3 ×10⁻⁶ cm/s	28.6 ×10⁻⁶ cm/s	1.7	highest permeability and HIGH	35 ± 1.8 µM	43 ± 9.1 µM	0.6	29 ± 14 µM	36 ± 1.4 µM	25 ± 4.1 µM		92%					
OCC(c1ccc(Br)cc1)n1cc(Cn2cnc3ccccc32)nn1 (stereo not drawn) [Compound 34a, 1-((1-(2-Hydroxy-1-(4-bromophenyl)ethyl)-1H-1,2,3-triazol-4-yl)methyl)-1H-benzimidazole]	≤ 2 ×10⁻⁶ cm/s	65.7 ×10⁻⁶ cm/s	32.8		35 ± 14.2 µM	15 ± 8.9 µM	2.8	22 ± 5.1 µM	39 ± 4.3 µM	42 ± 8.3 µM	LOW (<30% low)		≤ 2 ×10⁻⁶ cm/s				
OC(Cn1cc(Cn2cnc3ccccc32)nn1)c1ccc(Br)cc1 (stereo not drawn) [Compound 34b, 1-((1-(2-Hydroxy-2-(4-bromophenyl)ethyl)-1H-1,2,3-triazol-4-yl)methyl)-1H-benzimidazole]	4.3 ×10⁻⁶ cm/s	69.4 ×10⁻⁶ cm/s	17.2	MODERATE	64 ± 19.5 µM	8 ± 3.2 µM	4.0	39 ± 10.1 µM	70 ± 14.5 µM	32 ± 14.1 µM	MODERATE (30–70% moderate)	48%					
OCC(c1ccc(Br)cc1)n1cc(Cn2cnc3c(Cl)ncnc32)nn1 (stereo not drawn) [Compound 39a, 6-Chloro-9-((1-(2-hydroxy-1-(4-bromophenyl)ethyl)-1H-1,2,3-triazol-4-yl)methyl)-9H-purine]		58 ×10⁻⁶ cm/s	68.1		16 ± 5.6 µM	46 ± 3.8 µM		14 ± 4.8 µM	31 ± 2.6 µM	14 ± 4.7 µM			≤ 2 ×10⁻⁶ cm/s	0.9	0.5		
OC(Cn1cc(Cn2cnc3c(Cl)ncnc32)nn1)c1ccc(Br)cc1 (stereo not drawn) [Compound 39b, 6-Chloro-9-((1-(2-hydroxy-2-(4-bromophenyl)ethyl)-1H-1,2,3-triazol-4-yl)methyl)-9H-purine]	3.1 ×10⁻⁶ cm/s	69.6 ×10⁻⁶ cm/s	22.5	MODERATE	44 ± 8.1 µM	15 ± 1 µM		21 ± 14 µM	50 ± 0.6 µM	30 ± 2.7 µM				0.7	0.6		
OC(Cn1cc(Cn2cnc3c(Cl)ncnc32)nn1)c1ccc(C(F)(F)F)cc1 (stereo not drawn) [Compound 40b, 6-Chloro-9-((1-(2-hydroxy-2-(4-(trifluoromethyl)phenyl)ethyl)-1H-1,2,3-triazol-4-yl)methyl)-9H-purine]					15 ± 9 µM	25 ± 6.4 µM		28 ± 6.7 µM	14 ± 8.1 µM	8 ± 4.8 µM	low clearance			0.5	0.6	higher efflux values	
OCC(c1ccc(Br)cc1)n1cc(Cn2ccc3c(Cl)ncnc32)nn1 (stereo not drawn) [Compound 44a, 4-Chloro-7-((1-(2-hydroxy-1-(4-bromophenyl)ethyl)-1H-1,2,3-triazol-4-yl)methyl)-7H-pyrrolo[2,3-d]pyrimidine]	10.9 ×10⁻⁶ cm/s	67.4 ×10⁻⁶ cm/s	6.2	HIGH	83 ± 28.3 µM	69 ± 2 µM	1.1	79 ± 17.6 µM	87 ± 9.9 µM	79 ± 17.6 µM	MODERATE (30–70% moderate)	56%					1.0
OCC(c1ccc(Br)cc1)n1cc(Cn2cnc3c(Cl)nccc32)nn1 (stereo not drawn) [Compound 49a, 4-Chloro-1-((1-(2-hydroxy-1-(4-bromophenyl)ethyl)-1H-1,2,3-triazol-4-yl)methyl)-1H-imidazo[4,5-c]pyridine]	≤ 2 ×10⁻⁶ cm/s	41.1 ×10⁻⁶ cm/s	41.4		66 ± 22.8 µM	77 ± 0.5 µM		77 ± 3 µM	77 ± 1.1 µM	90 ± 4.04 µM	LOW (<30% low)		≤ 2 ×10⁻⁶ cm/s	1.4			
O[C@H](Cn1cc(Cn2ccc3c(Cl)ncnc32)nn1)c1ccc(Cl)cc1 [Compound (S)-43b, (S)-4-Chloro-7-((1-(2-hydroxy-2-(4-chlorophenyl)ethyl)-1H-1,2,3-triazol-4-yl)methyl)-7H-pyrrolo[2,3-d]pyrimidine]					21 ± 0.8 µM	31 ± 5.3 µM	1.3	33 ± 5.8 µM	33 ± 7.8 µM	41 ± 1.1 µM							1.2
O[C@H](Cn1cc(Cn2ccc3c(Cl)ncnc32)nn1)c1ccc(C(F)(F)F)cc1 [Compound (S)-45b, (S)-4-Chloro-7-((1-(2-hydroxy-2-(4-(trifluoromethyl)phenyl)ethyl)-1H-1,2,3-triazol-4-yl)methyl)-7H-pyrrolo[2,3-d]pyrimidin]					23 ± 2.3 µM	43 ± 10.8 µM	1.0	26 ± 8.5 µM	31 ± 2.2 µM	43 ± 3.9 µM							1.7
